# Structures can show the parent of a compound that is named as a salt. Where two headings read alike, the source gives them in different places.
# Assays:
# Citrobacter freundii = test: MIC vs recent clinical and agricultural isolates (Table V, KK); format: cell-based; details: [10] tested
# [1] = test system: N. gonorrhoeae IL 611 (Sensitive); test: MIC, agar dilution; format: cell-based; details: Neisseria gonorrhoeae; N. gonorrhoeae IL 611 (Sensitive); read-out: MIC
# [2] = test system: N. gonorrhoeae 6418 (tetM); test: MIC, agar dilution; format: cell-based; details: Neisseria gonorrhoeae
# S. aureus UBMS 90-2 = test: In vivo antibacterial evaluation, acute lethal infection in mice; details: Staphylococcus aureus, UBMS902, sc, read-out: ED50, median effective dose protecting 50% of the infected mice; mice infected with S. aureus UBMS 90-2 (tetM), single subcutaneous dosing
# From the text: (§1) In Vivo Antibacterial Evaluation (Table VII)
# S. aureus UBMS 90-1 = test: as above; details: Staphylococcus aureus, UBMS901, sc, read-out: ED50, median effective dose protecting 50% of the infected mice; mice infected with S. aureus UBMS 90-1 (tetM), single subcutaneous dosing
# From the text: as §1
# Enterococcus faecium [3] = test: MIC against clinical isolates (Table V, A and O); format: cell-based; details: Enterococcus faecium clinical isolates, (11) tested
# [4] = test system: E. coli UBMS 88-2 (Sensitive); test: MIC, agar dilution; format: cell-based; details: Escherichia coli; E. coli UBMS 88-2 (Sensitive); read-out: MIC
# [5] = test system: S. aureus ATCC 29213 (Sensitive); test: MIC, agar dilution; format: cell-based
# Bacteroides spp. = test: MIC against clinical isolates (Table V, A and O); format: cell-based; details: Bacteroides spp. clinical isolates, (15) tested
# Moraxella catarrhalis = test: MIC vs recent clinical and agricultural isolates (Table V, KK); format: cell-based; details: [18] tested
# Streptococcus pyogenes = test: as above; format: cell-based; details: [10] tested
# Shigella spp. = format: cell-based; details: [14] tested
# [6] = test system: S. aureus UBMS 88-4 (Sensitive); test: MIC, agar dilution; format: cell-based
# Neisseria gonorrhoeae = test: MIC against clinical isolates (Table V, A and O); format: cell-based; details: Neisseria gonorrhoeae clinical isolates, (9) tested
# [7] = test system: E. faecalis UBMS 90-7 (tetM); test: MIC, agar dilution; format: cell-based; details: Enterococcus faecalis
# [8] = test system: E. faecalis UBMS 90-6 (tetM); test: MIC, agar dilution; format: cell-based; details: Enterococcus faecalis
# Escherichia coli = test: MIC against clinical isolates (Table V, A and O); format: cell-based; details: Escherichia coli clinical isolates, (10) tested
# Enterococcus faecium [9] = test: MIC vs recent clinical and agricultural isolates (Table V, KK); format: cell-based; details: [10] tested
# [10] = test system: S. haemolyticus AVAH 88-3; test: MIC, agar dilution; format: cell-based
# Citrobacter diversus = test: MIC vs recent clinical and agricultural isolates (Table V, KK); format: cell-based; details: [10] tested
# Proteus spp. indole+ = test: MIC against clinical isolates (Table V, A and O); format: cell-based; details: Proteus spp. indole+ clinical isolates, (9) tested
# Pseudomonas aeruginosa = test: MIC vs recent clinical and agricultural isolates (Table V, KK); format: cell-based; details: [10] tested
# [11] = test system: TetM S30 extract, derivative of E. coli MRE600 containing the tetM determinant; test: E. coli in vitro transcription and protein translation, 35S-methionine incorporation (Table VIII)
# E. coli J3272 TetC = test: MIC, agar dilution (Table IA); format: cell-based; details: unit assumed
# E. coli J3272 Tet sens. = test: MIC, agar dilution (Table IA); format: cell-based; details: unit assumed
# [12] = test system: Wild Type S30 extract, E. coli strain MRE600 (tetracycline sensitive); test: E. coli in vitro transcription and protein translation, 35S-methionine incorporation (Table VIII)
# [13] = test system: S. aureus IVES 1983 (meth. resistant); test: MIC, agar dilution; format: cell-based; details: S. aureus IVES 1983; Table IA; unit assumed
# E. coli J3272 TetD = test: MIC, agar dilution (Table IA); format: cell-based; details: unit assumed
# E. coli #311 (MP) = test: MIC, agar dilution (Table IA); format: cell-based; details: unit assumed
# [14] = test system: X. maltophilia NEMC 87210; test: MIC, agar dilution (Table IA); format: cell-based; details: unit assumed
# E. coli BAJ9003 = test: MIC, agar dilution (Table IA); format: cell-based; details: unit assumed
# [15] = test system: S. aureus IVES 2943 (meth. resistant); test: MIC, agar dilution; format: cell-based; details: S. aureus IVES 2943; Table IA; unit assumed
# S. aureus ROSE (MP) = test: MIC, agar dilution (Table IA); format: cell-based; details: unit assumed
# E. coli UBMS 90-5 = test: MIC, agar dilution (Table IA); format: cell-based; details: unit assumed
# S. mariescens FDOR 8733 = test: MIC, agar dilution (Table IA); format: cell-based; details: unit assumed
# E. coli MC4100 TetB = test: MIC, agar dilution (Table IA); format: cell-based; details: unit assumed
# Providencia spp. = test: MIC vs recent clinical and agricultural isolates (Table V, KK); format: cell-based; details: [13] tested
smiles,measurement,setting,value
"CN(C)c1ccc(O)c2c1C[C@H]1C[C@H]3[C@H](N(C)C)C(O)=C(C(N)=O)C(=O)[C@@]3(O)C(O)=C1C2=O [Compound O, 7-(Dimethylamino)-6-demethyl-6-deoxytetracycline hydrochloride (minocycline hydrochloride), reference compound]",MIC (range over isolates),Citrobacter freundii,0.03 to 32 µg/mL
same,MIC,[1],0.5 µg/mL
same,MIC,[2],> 32 µg/mL
same,ED50,S. aureus UBMS 90-2,3 mg/kg
same,ED50,S. aureus UBMS 90-1,1.7 mg/kg
same,MIC Range,Enterococcus faecium [3],<0.015 to 16.00 µg/mL
same,MIC50,Enterococcus faecium [3]; read-out: MIC50,8 µg/mL
same,MIC90,Enterococcus faecium [3]; read-out: MIC90,16 µg/mL
same,MIC,[4],0.5 µg/mL
same,MIC,"[5]; Staphylococcus aureus, ATCC29213, S. aureus ATCC 29213 (Sensitive), read-out: MIC",≤ 0.015 µg/mL
same,MIC Range,Bacteroides spp.,>0.15 to 16.00 µg/mL
same,MIC50,Bacteroides spp.; read-out: MIC50,1 µg/mL
same,MIC90,Bacteroides spp.; read-out: MIC90,4 µg/mL
same,MIC (range over isolates),Moraxella catarrhalis,0.03 to 0.12 µg/mL
same,MIC (range over isolates),Streptococcus pyogenes,0.03 to 2 µg/mL
same,MIC (range over isolates),Shigella spp.,0.25 to 8 µg/mL
same,MIC,"[6]; Staphylococcus aureus, S. aureus UBMS 88-4 (Sensitive), read-out: MIC",≤ 0.015 µg/mL
same,MIC50,Neisseria gonorrhoeae; read-out: MIC50,0.25 µg/mL
same,MIC90,Neisseria gonorrhoeae; read-out: MIC90,> 32 µg/mL
same,MIC,[7],8 µg/mL
same,MIC,[8],8 µg/mL
same,MIC Range,Escherichia coli,0.12 to 32.00 µg/mL
same,MIC50,Escherichia coli; read-out: MIC50,0.25 µg/mL
same,MIC90,Escherichia coli; read-out: MIC90,16 µg/mL
same,MIC (range over isolates),Enterococcus faecium [9],0.03 to 16 µg/mL
same,MIC,"[10]; S. haemolyticus AVAH 88-3, hydrochloride",0.06 µg/mL
same,MIC,"[10]; Staphylococcus haemolyticus, AVAH883, S. haemolyticus AVAH 88-3, read-out: MIC",0.03 µg/mL
same,MIC (range over isolates),Citrobacter diversus,0.25 to 4 µg/mL
same,MIC50,Proteus spp. indole+; read-out: MIC50,16 µg/mL
same,MIC90,Proteus spp. indole+; read-out: MIC90,> 32 µg/mL
same,MIC (range over isolates),Pseudomonas aeruginosa,1 to 16 µg/mL
"CN(C)CC(=O)Nc1cc(N(C)C)c2c(c1O)C(=O)C1=C(O)[C@]3(O)C(=O)C(C(N)=O)=C(O)[C@@H](N(C)C)C3CC1C2.Cl.Cl (stereo partly drawn) [KK, [4S-(4alpha,12aalpha)]-4,7-Bis(dimethylamino)-9-[[(dimethylamino)acetyl]amino]-1,4,4a,5,5a,6,11,12a-octahydro-3,10,12,12a-tetrahydroxy-1,11-dioxo-2-naphthacenecarboxamide dihydrochloride]",% INHIBITION TetM S30,[11]; 0.03 mg/ml,75%
same,% INHIBITION TetM S30,[11]; 0.06 mg/ml,89%
same,% INHIBITION TetM S30,[11]; 0.5 mg/ml,96%
same,% INHIBITION TetM S30,[11]; 1.0 mg/ml,95%
same,MIC (range over isolates),Citrobacter freundii,0.25 to 8 µg/mL
same,Antibacterial activity (MIC),E. coli J3272 TetC,1 µg/mL
same,Antibacterial activity (MIC),E. coli J3272 Tet sens.,0.12 µg/mL
same,Antibacterial activity (MIC),"[5]; S. aureus ATCC 29213, Table IA",≦0.015
same,MIC (range over isolates),Moraxella catarrhalis,0.06 to 0.12 µg/mL
same,% INHIBITION Wild Type S30,[12]; 0.03 mg/ml,81%
same,% INHIBITION Wild Type S30,[12]; 0.06 mg/ml,82%
same,% INHIBITION Wild Type S30,[12]; 0.5 mg/ml,90%
same,% INHIBITION Wild Type S30,[12]; 1.0 mg/ml,92%
same,MIC (range over isolates),Streptococcus pyogenes,0.06 to 0.12 µg/mL
same,Antibacterial activity (MIC),[13],1 µg/mL
same,Antibacterial activity (MIC),E. coli J3272 TetD,0.12 µg/mL
same,MIC (range over isolates),Shigella spp.,0.06 to 0.5 µg/mL
same,Antibacterial activity (MIC),E. coli #311 (MP),0.25 µg/mL
same,Antibacterial activity (MIC),[14],0.25 µg/mL
same,Antibacterial activity (MIC),E. coli BAJ9003,0.03 µg/mL
same,Antibacterial activity (MIC),"[6]; S. aureus UBMS 88-4, Table IA, unit assumed",0.12 µg/mL
same,Antibacterial activity (MIC),[15],1 µg/mL
same,Antibacterial activity (MIC),S. aureus ROSE (MP),1 µg/mL
same,Antibacterial activity (MIC),E. coli UBMS 90-5,0.25 µg/mL
same,Antibacterial activity (MIC),S. mariescens FDOR 8733,2 µg/mL
same,Antibacterial activity (MIC),E. coli MC4100 TetB,0.25 µg/mL
same,MIC (range over isolates),Enterococcus faecium [9],0.03 to 0.12 µg/mL
same,MIC (range over isolates),Providencia spp.,2 to 8 µg/mL
same,Antibacterial activity (MIC),"[10]; S. hemolyticus AVHAH 88-3, Table IA, unit assumed",0.12 µg/mL
same,MIC (range over isolates),Citrobacter diversus,0.25 to 1 µg/mL
same,MIC (range over isolates),Pseudomonas aeruginosa,1 to 16 µg/mL

# Reference: patent USRE40086E1, “Method for treating bacterial infection with novel 7-substituted-9-substituted amino 6-demethyl-6-deoxytetracyclines” (Wyeth Holdings Corporation, priority 1991, dated 2008)
